Source: US7741362B2, “Somatostatin receptor 1 and/or 4 selective agonists and antagonists” (Siegfried Wurster, priority 2003, dated 2010)
Like-named read-outs stand apart in the source and are kept apart here.

Tests used:
[1] = molecular target: T1, human somatostatin receptor subtype SSTR4 (Homo sapiens, UniProt P31391); test: Competition binding with 125I-LTT-sst-28, human somatostatin receptor subtype SSTR4
T1 construct: expressed in transfected cells; host or cells: CHO cells (membranes)
Method: (§1) The affinity of the compounds of the invention for the five human somatostatin receptor subtypes (SSTR1, SSTR2, SSTR3, SSTR4, and SSTR5) was determined in competition binding assays with (^125I-Tyr)-[Leu^8,DTrp^22]-somatostatin-28 (^125I-LTT-sst-28). The biological material for these experiments consisted of membranes from Chinese hamster ovary (CHO) cells stably transfected with one of the five human somatostatin receptor subtypes. Membranes (3-20 μg of total protein per sample) and trace amount of ^125I-LTT-sst-28 were incubated in 10 mM Hepes, 1 mM EDTA, 5 mM MgCl2, 5 mg/ml of BSA and 30 μg/ml bacitracin, pH 7.6 with six concentrations of the compounds. Each concentration was run in duplicate. Nonspecific binding was defined by 1 μM somatostatin-14 (sst-14) and corresponded to 5-25% of total binding. After 60 min at room temperature, incubations were terminated by rapid vacuum filtration through GF/B glass fiber filter mats (presoaked at 4° C. in 200 ml of 10 mM Hepes, 1 mM EDTA, 5 mM MgCl2, pH 7.6) and three 5 ml washes with ice-cold wash buffer (20 mM TRIS, 1 mM EDTA, 5 mM MgCl2, pH 7.4). The filters were then dried, impregnated with scintillate and their radioactivity was measured by scintillation counting. The analysis of the experiments was carried out by nonlinear least square curve fitting. Affinity constants (Ki) were calculated from the IC50 values according to the Cheng-Prusoff's equation (Cheng and Prusoff, 1973). Experiments were repeated a minimum of three times.

[2] = molecular target: T2, human somatostatin receptor subtype SSTR1 (Homo sapiens, UniProt P30872); test: Competition binding with 125I-LTT-sst-28, human somatostatin receptor subtype SSTR1
T2 construct: expressed in transfected cells; host or cells: CHO cells (membranes)
Method: as §1

[3] = molecular target: T3, human somatostatin receptor subtype SSTR2 (Homo sapiens, UniProt P30874); test: Competition binding with 125I-LTT-sst-28, human somatostatin receptor subtype SSTR2; settings: membranes from CHO cells stably transfected with human SSTR2, Cheng-Prusoff
T3 construct: expressed in transfected cells; host or cells: CHO cells (membranes)
Method: as §1, with “The analysis of the experiments was carried out by nonlinear least square curve fitting.” left out, “Experiments were repeated a minimum of three times.” left out

[4] = molecular target: T4, human somatostatin receptor subtype SSTR3 (Homo sapiens, UniProt P32745); test: Competition binding with 125I-LTT-sst-28, human somatostatin receptor subtype SSTR3; settings: membranes from CHO cells stably transfected with human SSTR3, Cheng-Prusoff
T4 construct: expressed in transfected cells; host or cells: CHO cells (membranes)
Method: as §1, with “The analysis of the experiments was carried out by nonlinear least square curve fitting.” left out, “Experiments were repeated a minimum of three times.” left out

[5] = molecular target: T5, human somatostatin receptor subtype SSTR5 (Homo sapiens, UniProt P35346); test: Competition binding with 125I-LTT-sst-28, human somatostatin receptor subtype SSTR5; settings: membranes from CHO cells stably transfected with human SSTR5, Cheng-Prusoff
T5 construct: expressed in transfected cells; host or cells: CHO cells (membranes)
Method: as §1, with “The analysis of the experiments was carried out by nonlinear least square curve fitting.” left out, “Experiments were repeated a minimum of three times.” left out

[6] = same protocol, less than 300 nM, read-out: Ki for SSTR4 (bound)
[7] = same protocol, less than 300 nM, read-out: Ki for SSTR1 (bound)
[8] = membranes from CHO cells stably transfected with human SSTR4, 125I-LTT-sst-28, Cheng-Prusoff, read-out: Ki (SSTR4)

T1 sequence (P31391 whole entry): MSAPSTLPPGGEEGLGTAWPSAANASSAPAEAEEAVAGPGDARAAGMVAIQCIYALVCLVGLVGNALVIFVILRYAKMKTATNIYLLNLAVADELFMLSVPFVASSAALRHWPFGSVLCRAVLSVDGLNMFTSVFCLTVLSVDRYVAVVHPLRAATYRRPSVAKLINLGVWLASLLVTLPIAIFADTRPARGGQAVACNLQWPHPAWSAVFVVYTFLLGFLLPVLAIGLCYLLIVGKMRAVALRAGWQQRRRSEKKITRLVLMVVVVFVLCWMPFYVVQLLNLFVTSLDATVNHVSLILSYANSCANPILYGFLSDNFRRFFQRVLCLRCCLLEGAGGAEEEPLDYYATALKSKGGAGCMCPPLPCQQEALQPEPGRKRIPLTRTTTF
T2 sequence (P30872 whole entry): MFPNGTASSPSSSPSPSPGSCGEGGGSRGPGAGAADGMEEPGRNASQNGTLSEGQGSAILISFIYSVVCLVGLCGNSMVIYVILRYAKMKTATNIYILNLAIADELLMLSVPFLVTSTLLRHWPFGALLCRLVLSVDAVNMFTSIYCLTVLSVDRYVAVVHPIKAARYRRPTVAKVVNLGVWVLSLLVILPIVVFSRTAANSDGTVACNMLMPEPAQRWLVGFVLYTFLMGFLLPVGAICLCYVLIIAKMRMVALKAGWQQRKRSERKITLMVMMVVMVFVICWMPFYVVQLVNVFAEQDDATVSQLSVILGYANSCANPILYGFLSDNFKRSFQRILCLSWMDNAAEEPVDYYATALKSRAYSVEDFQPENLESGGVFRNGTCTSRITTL
T3 sequence (P30874 whole entry): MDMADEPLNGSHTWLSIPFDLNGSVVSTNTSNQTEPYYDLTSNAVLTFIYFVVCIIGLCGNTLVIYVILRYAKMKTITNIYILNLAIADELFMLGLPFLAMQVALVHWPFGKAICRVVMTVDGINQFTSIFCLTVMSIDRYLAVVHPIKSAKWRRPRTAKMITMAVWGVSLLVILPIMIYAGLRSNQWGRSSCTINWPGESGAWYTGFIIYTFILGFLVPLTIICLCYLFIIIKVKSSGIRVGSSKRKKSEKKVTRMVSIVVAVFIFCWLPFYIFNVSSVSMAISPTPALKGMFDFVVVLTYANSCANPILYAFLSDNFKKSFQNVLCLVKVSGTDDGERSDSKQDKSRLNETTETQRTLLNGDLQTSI
T4 sequence (P32745 whole entry): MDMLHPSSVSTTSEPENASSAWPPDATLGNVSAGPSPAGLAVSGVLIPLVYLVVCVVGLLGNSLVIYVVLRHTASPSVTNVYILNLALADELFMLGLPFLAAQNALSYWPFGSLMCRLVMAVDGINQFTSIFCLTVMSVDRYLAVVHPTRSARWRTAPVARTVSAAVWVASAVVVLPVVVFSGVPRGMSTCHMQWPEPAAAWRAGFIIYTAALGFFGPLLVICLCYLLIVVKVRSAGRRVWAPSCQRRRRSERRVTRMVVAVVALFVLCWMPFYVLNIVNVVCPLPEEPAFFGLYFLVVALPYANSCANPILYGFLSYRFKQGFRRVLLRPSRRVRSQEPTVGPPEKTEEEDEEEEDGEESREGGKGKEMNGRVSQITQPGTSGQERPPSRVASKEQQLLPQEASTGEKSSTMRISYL
T5 sequence (P35346 whole entry): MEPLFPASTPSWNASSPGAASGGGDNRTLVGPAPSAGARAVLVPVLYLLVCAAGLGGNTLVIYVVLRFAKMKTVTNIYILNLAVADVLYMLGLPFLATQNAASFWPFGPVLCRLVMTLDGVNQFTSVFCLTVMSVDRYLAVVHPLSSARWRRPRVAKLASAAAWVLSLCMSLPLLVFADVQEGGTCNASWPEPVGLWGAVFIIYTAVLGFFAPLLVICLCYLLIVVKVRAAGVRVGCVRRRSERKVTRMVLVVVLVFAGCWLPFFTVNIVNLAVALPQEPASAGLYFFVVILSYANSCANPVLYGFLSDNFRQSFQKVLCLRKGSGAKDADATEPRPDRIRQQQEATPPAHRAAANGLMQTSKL

SMILES	Ki [1, 6]	Ki [2, 7]	further results
CCCCOc1ccc(S(=O)(=O)NC(CCCNC(=N)N)C(=O)NC(Cc2ccccc2)C(N)=O)cc1 [Compound 12, (S)-2-N-(4-butoxybenzenesulfonyl)amino-N′-((S)-1-carbamoyl-2-phenylethyl)-5-guanidinopentanamide]		< 300 nM	
Cc1ccc(S(=O)(=O)N[C@@H](CCN)C(=O)NC2CCCCC2)c2ccccc12 [Compound 1, 4-amino-N-cyclohexyl-(S)-2-(N′-(4-methyl-1-naphthalenesulfonyl)amino)butanamide]	< 300 nM		
Cc1ccc(S(=O)(=O)N[C@@H](CCN)C(=O)N[C@H](C(N)=O)C(C)C)c2ccccc12 [Compound 13, 4-amino-N-((S)-1-carbamoyl-2-methylpropyl)-(S)-2-(N′-(4-methyl-1-naphthalenesulfonyl)amino)butanamide]	< 300 nM		
CCc1ccc(S(=O)(=O)N[C@@H](CCN)C(=O)N[C@@H](Cc2ccccc2)C(N)=O)c2ccccc12 [Compound 8, 4-amino-N-((S)-1-carbamoyl-2-phenylethyl)-(S)-2-(N′-(4-ethyl-1-naphthalenesulfonyl)amino)butanamide]	< 300 nM		
Cc1ccc(S(=O)(=O)N[C@@H](CCNC(=N)N)C(=O)NCc2ccccc2)c2ccccc12 [Compound 4, N-benzyl-4-guanidino-(S)-2-(N′-(4-methyl-1-naphthalenesulfonyl)amino)butanamide]	< 300 nM		
Cc1ccc(S(=O)(=O)N[C@@H](CCN)C(=O)N[C@@H](Cc2ccccc2)C(N)=O)c2ccccc12 [Compound 2, 4-amino-N-(S)-1-carbamoyl-2-phenylethyl-(S)-2-(N′-(4-methyl-1-naphthalenesulfonyl)amino)butanamide]			Ki [1, 8]: 1.2 ± 0.4 nM; Ki [3]: > 5000 nM
Cc1ccc(S(=O)(=O)N[C@@H](CCCNC(=N)N)C(=O)N[C@H](C(N)=O)C(c2ccccc2)c2ccccc2)c2ccccc12 [Compound 6, N-((S)-1-carbamoyl-2,2-diphenylethyl)-5-guanidino-(S)-2-(N′-(4-methyl-1-naphthalenesulfonyl)amino)pentanamide]	< 300 nM	< 300 nM	
Cc1ccc(S(=O)(=O)N[C@@H](CCCNC(=N)N)C(=O)N[C@@H](Cc2ccccc2)C(N)=O)c2ccccc12 [Compound 5, N-((S)-1-carbamoyl-2-phenylethyl)-5-guanidino-(S)-2-(N′-(4-methyl-1-naphthalenesulfonyl)amino)pentanamide]	< 300 nM	< 300 nM	
Cc1ccc(S(=O)(=O)NC(CCN)C(=O)NC2CCCc3ccccc32)c2ccccc12 [Compound 18, 4-amino-(S)-2-N-(4-methyl-1-naphthalenesulfonyl)-amino-N′-(1,2,3,4-tetrahydro-1-naphthyl)butanamide]		< 300 nM	
CNCC[C@H](NS(=O)(=O)c1ccc(C)c2ccccc12)C(=O)NCCc1cccc(Cl)c1 [Compound 23, N-(2-(3-chlorophenyl)ethyl)-4-N′-methylamino-(S)-2-(N″-(4-methyl-1-naphthalenesulfonyl)amino)-butanamide]		< 300 nM	
Cc1ccc(S(=O)(=O)NC(CCCNC(C)C)C(=O)NC2CCCc3ccccc32)c2ccccc12 [Compound 17, 5-N-isopropylamino-(S)-2-N′-(4-methyl-1-naphthalene-sulfonyl)amino-N″-(1,2,3,4-tetrahydro-1-naphthyl)-pentanamide]			Ki [1, 8]: 84 ± 23 nM; Ki ([2]; membranes from CHO cells stably transfected with human SSTR1, 125I-LTT-sst-28, Cheng-Prusoff, read-out: Ki (SSTR1)): 1 ± 0.4 nM; Ki [4]: > 2000 nM; Ki [5]: > 10000 nM; Ki [3]: > 10000 nM

More lines, main results first:

Ki [1, 6]	Ki [2, 7]	SMILES	further results
< 300 nM		NCC[C@H](NS(=O)(=O)c1cccc2ccccc12)C(=O)N[C@@H](Cc1ccccc1)C(N)=O [Compound 10, 4-amino-N-((S)-1-carbamoyl-2-phenylethyl)-(S)-2-(N′-(1-naphthalenesulfonyl)amino)butanamide]	
< 300 nM		Cc1ccc(S(=O)(=O)N[C@@H](CCN)C(=O)N[C@H](C(N)=O)C(c2ccccc2)c2ccccc2)c2ccccc12 [Compound 9, 4-amino-N-((S)-1-carbamoyl-2,2-diphenylethyl)-(S)-2-(N′-(4-methyl-1-naphthalenesulfonyl)amino)butanamide]	
< 300 nM		Cc1ccc(S(=O)(=O)N[C@@H](CCCN)C(=O)NCCc2c[nH]c3ccccc23)c2ccccc12 [Compound 20, 5-amino-N-(2-(1H-indol-3-yl)ethyl)-(S)-2-(N′-(4-methyl-1-naphthalenesulfonyl)amino)pentanamide]	
< 300 nM		Cc1ccc(S(=O)(=O)N[C@@H](CCCN)C(=O)NC2(C(N)=O)Cc3ccccc3C2)c2ccccc12 [Compound 19, 5-amino-N-(2-(2-carbamoyl)indanyl)-(S)-2-(N′-(4-methyl-1-naphthalenesulfonyl)amino)pentanamide]	
< 300 nM		CCc1cc(Br)ccc1S(=O)(=O)NC(CCN)C(=O)NC(Cc1ccccc1)C(N)=O [Compound 14, 4-amino-(S)-2-N-(4-bromo-2-ethylbenzenesulfonyl)-amino-N′-((S)-1-carbamoyl-2-phenylethyl)butanamide]	
	< 300 nM	Cc1ccc(S(=O)(=O)N[C@@H](CCCN)C(=O)N[C@@H](Cc2cccc(Cl)c2)C(N)=O)c2ccccc12 [Compound 21, 5-amino-N-((S)-1-carbamoyl-2-(3-chlorophenyl)ethyl)-(S)-2-(N′-(4-methyl-1-naphthalenesulfonyl)amino)-pentanamide]	
< 300 nM		N=C(N)NCCC[C@H](NS(=O)(=O)c1cccc(-c2ccccc2)c1)C(=O)N[C@@H](Cc1ccccc1)C(N)=O [Compound 16, N-((S)-1-carbamoyl-2-phenylethyl)-5-guanidino-(S)-2-(N′-(3-phenylbenzenesulfonyl)amino)pentanamide]	
< 300 nM	< 300 nM	Cc1ccc(S(=O)(=O)N[C@@H](CCNC(C)C)C(=O)NCc2ccccc2)c2ccccc12 [Compound 3, N-benzyl-4-(N′-isopropyl)amino-(S)-2-(N″-(4-methyl-1-naphthalenesulfonyl)amino)butanamide]	
< 300 nM	< 300 nM	Cc1ccc(S(=O)(=O)N[C@@H](CCCN)C(=O)N[C@@H](Cc2ccccc2)C(N)=O)c2ccccc12 [Compound 7, 5-amino-N-((S)-1-carbamoyl-2-phenylethyl)-(S)-2-(N′-(4-methyl-1-naphthalenesulfonyl)amino)pentanamide]	
	< 300 nM	Cc1ccc(S(=O)(=O)N[C@@H](CCNC2CCCCC2)C(=O)NCc2ccccc2)c2ccccc12 [Compound 11, N-benzyl-4-N′-cyclohexylamino-(S)-2-(N″-(4-methyl-1-naphthalenesulfonyl)amino)butanamide]	
	< 300 nM	N=C(N)NCCC[C@H](NS(=O)(=O)c1ccc2ccccc2c1)C(=O)N[C@@H](Cc1ccccc1)C(N)=O [Compound 15, N-((S)-1-carbamoyl-2-phenylethyl)-5-guanidino-(S)-2-(N′-(2-naphthalenesulfonyl)amino)pentanamide]	
	< 300 nM	Cc1ccc(S(=O)(=O)NC(CCCN)C(=O)NC2(C(N)=O)CCc3ccccc3C2)c2ccccc12 [Compound 22, 5-amino-N-(2-(2-carbamoyl)-1,2,3,4-tetrahydronaphthyl)-(S)-2-(N′-(4-methyl-1-naphthalenesulfonyl)amino)-pentanamide]	
